Data on 1 molecule can be found in article PMC12406255, “Engineering Peptide Modulators for T‑Cell Migration by Structural Scaffold Matching” (Journal of Medicinal Chemistry, 2025).

Positions of bridges follow the written chain, without caps; N, C: chain ends. Non-standard residues stand in square brackets, D forms with d. Residues, ends and D or L forms follow the SMILES beside them. Nle = CCCC[C@H](N)C(=O)O

This test has as its system Th1 lymphocytes (CD3+, CD4+, CXCR3+, CCR6-) of MS patients. Put plainly: Transwell migration assay with PBMC of MS patients, Th1 cells. Format: cell-based, human. The note with it: PBMC of treatment-naive MS patients; mean ± SD, 4 independent measurements; p = 0.048. The method, then: 5 Activity of the novel VhTI-pep 2 and pepitem on patient lymphocytes. PPBMCs were isolated from the blood of MS patients with a very recent disease flare receiving no immunosuppressive or immunomodulatory treatment in the past. The effect of the linear pepitem and VhTI-pep 2 was tested for the T-cell populations (A) CD3^+, (B) Th1, (C) CD4^+, (D) memory CD4^+, (E) CD8^+, and (F) memory CD8^+ cells. Data are shown as mean ± SD for 4 independent measurements. Statistical analysis was performed on the level of total counted cells using repeated measures one-way ANOVA with Dunnett’s post hoc test. Statistical significance is indicated as n.s. (not significant), * p < 0.05; ** p < 0.01; *** p < 0.001.
Human microvascular endothelial cells (HMEC-1 cells, Cytion, Eppelheim, Germany) were cultured in MCDB-131 medium (with 2.2 g/L sodium bicarbonate, without L-glutamine, PAN-Biotech Aidenbach, Germany) supplemented with 10% fetal bovine serum (FBS, Capricorn Scientific, Ebsdorfergrund, Germany), 100 units/ml penicillin-streptomycin (Sigma-Aldrich) 10 ng/mL epidermal growth factor (BioLegend, San Diego, US), 1 μg/mL hydrocortisone (Sigma-Aldrich), and 10 mM L-glutamine (Sigma-Aldrich). For experiments, the cells were used between passage numbers 4–9. […]

In the case of `CCCC[C@@H]1NC(=O)[C@H](C(C)C)NC(=O)[C@H](CCCCN)NC(=O)[C@@H](NC(=O)[C@H](CCC(N)=O)NC(=O)[C@H](CCC(=O)O)NC(C)=O)CSSC[C@@H](C(=O)N[C@@H](CCC(=O)O)C(=O)N[C@@H](CCCCN)C(N)=O)NC(=O)[C@H](CC(N)=O)NC(=O)[C@H](CC(=O)O)NC(=O)[C@H](CC(C)C)NC(=O)[C@@H]2CSSC[C@H](NC1=O)C(=O)N[C@@H](Cc1ccc(O)cc1)C(=O)N[C@@H](C)C(=O)N[C@@H](CCC(N)=O)C(=O)NCC(=O)N[C@@H](C)C(=O)N[C@@H](CCC(=O)O)C(=O)N[C@@H](CC(C)C)C(=O)N1CCC[C@H]1C(=O)N[C@@H](CCC(=O)O)C(=O)N[C@@H](CC(C)C)C(=O)N[C@@H](CC(C)C)C(=O)N[C@@H](CCCNC(=N)N)C(=O)N[C@@H](CCCNC(=N)N)C(=O)N2` [VhTI-pep 2] (Ac-EQCKV[Nle]CYAQGAELPELLRRCLDNCEK-NH2; disulfide 3-25, 7-21), the “inhibition of migration of Th1 lymphocytes” value was 34.3 ± 11.4%.
